Data from patent US12171768B2, “IRAK4 degraders and uses thereof” (priority 2021, dated 2024).
“Also recorded” adds a separate entry of the source. Where two headings read alike, the source gives them in different places.

How the values were obtained:
[1] = Distribution studies in rats; format: in vivo
[2] = Red blood cell partitioning; format: in vitro ADME
[3] = test system: TLR agonist (lipopolysaccharide and R848) and IL-1β-induced proinflammatory cytokine production; assay: In vitro cytokine release assays in PBMCs; format: cell-based; settings: LPS
[4] = test system: imiquimod psoriasis model; assay: Imiquimod psoriasis model (TLR 7/8-dependent); format: in vivo, murine
[5] = test system: MSU-crystal induced inflammation; assay: Mouse air pouch model of MSU-crystal induced (TLR 2/4-dependent) inflammation; format: in vivo; settings: 3 days twice daily, 30 to 100 mg/kg
Solubility = format: physicochemical
Plasma protein binding = format: in vitro ADME; settings: across nonclinical species and humans
[6] = Phase 1 SAD safety and tolerability; format: in vivo, human
Description: The safety data up to 24-hours post-dose for these sentinel HVs will be reviewed by the Investigator to ensure acceptable tolerability before commencing administration of the investigational product to the remaining HVs in the cohort. Sequential dosing of HVs within a cohort will be staggered so that there will be at least a gap of 10 minutes between dosing of individual HVs. After the completion of each dose level, the blinded interim PK data through Day 5 and safety data through Day 14 will be reviewed by the SRC before proceeding to the next dose level. Each subsequent dose administration will be performed, if in the judgment of the Investigator and Safety Physician, the results of the safety analyses of the preceding dose administration are satisfactory.
All data will be fully listed.

[7] = Excretion study in bile duct-cannulated (BDC) rats; format: in vivo
CYP3A4 = CYP3A4 (Homo sapiens, UniProt P08684); assay: In vitro drug-drug interaction study, CYP3A4; format: in vitro ADME
[8] = Phase 1 MAD Compound A concentration in skin; format: in vivo; settings: human, oral, Day 14, once daily dosing, read-out: Ctrough (pre-dose) levels in skin relative to plasma
[9] = test system: ex vivo proinflammatory cytokine induction by R848 and LPS in whole blood; assay: Phase 1 MAD ex vivo proinflammatory cytokine induction by R848 and LPS in whole blood; design: species or system human; settings: Day 7-14, daily up to about 200 mg
Text: In some embodiments, the cytokines include IFN-γ, IL-12, IL-1β, IL-10, IL-6, TNF-α, IL-8, IL-17, and IL-23.

P-glycoprotein (P-gp) = P-glycoprotein (P-gp) (Homo sapiens, UniProt P08183); assay: P-gp substrate identification in vitro; format: in vitro ADME
[10] = Phase 1 MAD plasma pharmacokinetics; format: in vivo, human; settings: for Cmax at 14 days / concentration at 24 h / Tmax at 14 days: human, plasma, oral, steady-state (Day 14); for Cmax at 14 days / concentration at 24 h: geometric mean (% CV); for concentration at 24 h: read-out: Ctrough; for Tmax at 14 days: median (range)
Text: The selection of Compound A doses will be guided by the safety, tolerability, and PK data in humans from the SAD portion of the study. […] Increasing dose levels in subsequent MAD cohorts will be identified based on the safety and PK observed in the previous SAD and MAD cohorts. Dose escalation between each MAD cohort will not exceed 100%.
However, the dosing interval and the duration of dosing may change following review of the safety, PK, and PD data from Part A. […]

[11] = Phase 1 SAD plasma pharmacokinetics; format: in vivo, human; settings: for Tmax: healthy volunteers
Text: Initially, a dose range of Compound A in single ascending dose (SAD) escalation cohorts will be explored in adult HVs (Part A). […] Safety and PK data from at least 3 completed SAD cohorts will determine initiation of and appropriate doses for the 14-day multiple ascending dose (MAD) portion of the study (Part B).
The graphical assessment of dose proportionality will be performed for AUC and Cmax. Relative bioavailability of food effect will be assessed based on AUC and Cmax.

cytochrome P450 (CYP) = assay: In vitro and in vivo metabolism studies; format: in vitro ADME
CYP2C19 = CYP2C19 (Homo sapiens, UniProt P33261); assay: In vitro drug-drug interaction study, CYP2C19; format: in vitro ADME
[12] = blinded SAD safety, per Investigator assessment

Sequence of P-glycoprotein (P-gp) (P08183 whole entry): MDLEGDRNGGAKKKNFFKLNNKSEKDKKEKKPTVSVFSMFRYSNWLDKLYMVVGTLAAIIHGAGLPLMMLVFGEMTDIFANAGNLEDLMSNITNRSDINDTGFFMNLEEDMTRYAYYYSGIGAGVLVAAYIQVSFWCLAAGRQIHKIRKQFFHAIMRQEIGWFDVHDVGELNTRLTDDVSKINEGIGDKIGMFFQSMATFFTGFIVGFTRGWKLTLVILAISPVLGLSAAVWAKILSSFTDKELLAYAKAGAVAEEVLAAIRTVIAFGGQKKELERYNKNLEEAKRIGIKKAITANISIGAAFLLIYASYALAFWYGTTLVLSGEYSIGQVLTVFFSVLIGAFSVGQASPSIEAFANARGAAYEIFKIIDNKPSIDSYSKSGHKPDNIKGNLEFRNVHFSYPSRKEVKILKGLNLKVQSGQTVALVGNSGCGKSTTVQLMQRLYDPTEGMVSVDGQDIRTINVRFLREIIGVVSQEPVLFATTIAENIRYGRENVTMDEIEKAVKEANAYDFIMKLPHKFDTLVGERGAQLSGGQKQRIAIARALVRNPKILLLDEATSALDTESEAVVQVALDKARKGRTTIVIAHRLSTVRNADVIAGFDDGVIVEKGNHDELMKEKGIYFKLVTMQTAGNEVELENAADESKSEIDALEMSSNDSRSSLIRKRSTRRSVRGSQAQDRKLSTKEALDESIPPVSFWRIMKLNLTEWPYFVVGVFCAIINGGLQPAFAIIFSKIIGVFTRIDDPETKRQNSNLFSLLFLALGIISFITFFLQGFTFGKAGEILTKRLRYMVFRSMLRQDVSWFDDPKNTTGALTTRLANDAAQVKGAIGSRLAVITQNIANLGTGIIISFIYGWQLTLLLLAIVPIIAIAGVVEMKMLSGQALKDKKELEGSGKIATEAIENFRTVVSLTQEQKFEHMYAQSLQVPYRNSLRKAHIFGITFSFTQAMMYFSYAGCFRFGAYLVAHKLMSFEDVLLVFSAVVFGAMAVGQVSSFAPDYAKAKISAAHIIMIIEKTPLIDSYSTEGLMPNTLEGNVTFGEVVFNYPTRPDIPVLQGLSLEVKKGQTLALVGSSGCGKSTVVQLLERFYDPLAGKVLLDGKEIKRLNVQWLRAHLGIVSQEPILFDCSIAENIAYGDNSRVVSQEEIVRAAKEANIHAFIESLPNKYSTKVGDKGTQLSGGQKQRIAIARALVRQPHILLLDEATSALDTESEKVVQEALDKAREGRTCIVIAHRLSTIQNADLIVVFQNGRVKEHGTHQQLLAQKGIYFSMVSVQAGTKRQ
Sequence of CYP3A4 (P08684 whole entry): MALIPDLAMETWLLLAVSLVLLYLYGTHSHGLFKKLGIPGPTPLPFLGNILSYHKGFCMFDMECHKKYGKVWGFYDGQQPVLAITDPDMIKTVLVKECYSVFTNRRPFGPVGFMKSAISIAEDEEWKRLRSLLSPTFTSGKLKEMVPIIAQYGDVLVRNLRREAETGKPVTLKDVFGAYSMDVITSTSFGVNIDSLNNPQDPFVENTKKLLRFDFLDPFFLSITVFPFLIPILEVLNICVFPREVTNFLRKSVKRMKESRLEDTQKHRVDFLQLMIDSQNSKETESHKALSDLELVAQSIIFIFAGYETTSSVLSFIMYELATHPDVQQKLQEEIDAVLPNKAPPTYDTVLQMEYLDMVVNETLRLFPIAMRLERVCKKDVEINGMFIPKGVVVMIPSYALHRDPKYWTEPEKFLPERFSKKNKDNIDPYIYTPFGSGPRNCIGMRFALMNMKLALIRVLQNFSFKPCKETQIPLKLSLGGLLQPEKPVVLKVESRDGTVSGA
Sequence of CYP2C19 (P33261 whole entry): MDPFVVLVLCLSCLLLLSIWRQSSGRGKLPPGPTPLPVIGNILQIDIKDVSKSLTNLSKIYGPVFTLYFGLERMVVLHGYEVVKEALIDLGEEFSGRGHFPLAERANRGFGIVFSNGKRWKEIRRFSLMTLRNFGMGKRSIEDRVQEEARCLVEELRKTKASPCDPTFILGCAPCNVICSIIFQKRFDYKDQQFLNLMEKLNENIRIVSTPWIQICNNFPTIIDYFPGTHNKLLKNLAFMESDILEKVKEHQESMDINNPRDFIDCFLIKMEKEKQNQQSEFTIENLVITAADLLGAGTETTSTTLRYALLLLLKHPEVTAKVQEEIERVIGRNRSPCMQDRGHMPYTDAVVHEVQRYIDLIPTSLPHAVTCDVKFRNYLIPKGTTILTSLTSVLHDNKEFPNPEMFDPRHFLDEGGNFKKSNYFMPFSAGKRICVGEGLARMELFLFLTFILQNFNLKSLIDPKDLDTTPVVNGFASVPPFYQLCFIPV

Cn1c(=O)n([C@@H]2CCC(=O)NC2=O)c2cccc(C#CCOC3CCN(C[C@H]4CC[C@H](n5cc(NC(=O)c6cnn7ccc(N8C[C@H]9C[C@@H]8CO9)nc67)c(C(F)F)n5)CC4)CC3)c21 [Compound A, 5-((1R,4R)-2-oxa-5-azabicyclo[2.2.1]heptan-5-yl)-N-(3-(difluoromethyl)-1-((1r,4R)-4-((4-((3-(1-(2,6-dioxopiperidin-3-yl)-3-methyl-2-oxo-2,3-dihydro-1H-benzo[d]imidazol-4-yl)prop-2-yn-1-yl)oxy)piperidin-1-yl)methyl)cyclohexyl)-1H-pyrazol-4-yl)pyrazolo[1,5-a]pyrimidine-3-carboxamide]
Penetration into the central nervous system (CNS) [1]: limited penetration
Tissue distribution [1]: extensively distributed into tissues
Partitioning into red blood cells [2]: did not significantly partition into red blood cells
IC50, inhibition of proinflammatory cytokine production (IL-6, TNF-α, GM-CSF, IL-8) [3]: low nM range
Degradation of IRAK4 in the spleen and skin ([4]; mouse, in vivo): dose-dependent degradation
Skin thickness ([4]; mouse, in vivo): reduction in skin thickness
IL-1β in the skin ([4]; p<0.0001): significant reduction
IL-6 in the skin ([4]; p<0.05, 300 mg/kg only): significant reduction
IRAK4 levels in the spleen [5]: significantly reduced
Inflammatory exudate, including neutrophils and IL-1β [5]: significantly reduced
BCS classification (tentative) (Solubility): BCS II
solubility (Solubility): low
solubility (Solubility; FaSSIF, pH 6.5, fassif, read-out: Solubility in bio-relevant fluid FaSSIF): < 12000 µg/mL
solubility (Solubility; aqueous media, aqueous buffer, across the physiological pH range, read-out: Aqueous solubility): ≤ 3000 µg/mL
Plasma protein binding (Plasma protein binding): highly bound
ECG changes ([6]; SAD): No significant ECG changes
QTcF prolongation ([6]; SAD): no clinically significant QTcF prolongation
Serious adverse events ([6]; SAD): no serious adverse events; also recorded: No SAEs
AST elevation ([6]; SAD 5, n=1, resolution ~Day 21): 3.8 × ULN
ALT elevation ([6]; SAD 5, n=1, slow resolution to baseline): 2.5 × ULN
Study treatment related AEs, Abdominal pain, #AEs [6, 12]: 1
Study treatment related AEs, Diarrhea, #AEs [6, 12]: 2
Study treatment related AEs, Diarrhea, (subjects) [6, 12]: (2)
Study treatment related AEs, Headache, #AEs [6, 12]: 5
Study treatment related AEs, Headache, (subjects) [6, 12]: (4)
Study treatment related AEs, Muscle weakness, #AEs [6, 12]: 1
Study treatment related AEs, Myalgia, #AEs [6, 12]: 1
Study treatment related AEs, Nausea, #AEs [6, 12]: 3
Study treatment related AEs, Nausea, (subjects) [6, 12]: (3)
Study treatment related AEs, Palpitations, #AEs [6, 12]: 1
Study treatment related AEs, Vomiting, #AEs [6, 12]: 2
Study treatment related AEs, Vomiting, (subjects) [6, 12]: (1)
Safety and tolerability ([6]; single doses, SAD): safe and well-tolerated
Biliary and intestinal excretion as parent drug [7]: minor to moderate
Renal clearance [7]: negligible
Inhibition of CYP3A4 (CYP3A4): potential time dependent inhibition
Kp at 14 day [8]: ~10
Inhibition of IFN-γ in whole blood [9]: up to 85%
P-gp substrate (P-glycoprotein (P-gp)): substrate
Day of dosing by which steady-state was reached ([10]; MAD, once daily dosing): ≤ 7 days
Cmax at 14 days ([10]; 25 mg QD): 8.2 ng/mL
concentration at 24 h ([10]; 25 mg QD): 5.03 ng/mL
Tmax at 14 days ([10]; 25 mg QD): 8 h
Cmax at 14 days ([10]; 50 mg QD): 12 ng/mL
concentration at 24 h ([10]; 50 mg QD): 7.28 ng/mL
Tmax at 14 days ([10]; 50 mg QD): 8 h
Cmax at 14 days ([10]; 100 mg QD): 16.1 ng/mL
concentration at 24 h ([10]; 100 mg QD): 9.81 ng/mL
Tmax at 14 days ([10]; 100 mg QD): 8 h
Cmax at 14 days ([10]; 200 mg QD): 25.2 ng/mL
concentration at 24 h ([10]; 200 mg QD): 18.8 ng/mL
Tmax at 14 days ([10]; 200 mg QD): 8 h
Dose-dependent plasma exposures ([11]; SAD): plateaued after 1000 mg
half-life ([11]; human, plasma, oral, after single dosing, across SAD cohorts): 25 to 40 h
Tmax ([11]; human, plasma, SAD 1, single oral dose 25 mg): 8 h
Tmax ([11]; human, plasma, SAD 2, single oral dose 75 mg): 7 h
Tmax ([11]; human, plasma, SAD 3, single oral dose 150 mg): 9 h
Tmax ([11]; human, plasma, SAD 4, single oral dose 300 mg): 8 h
Tmax ([11]; human, plasma, SAD 6, single oral dose 1000 mg): 20 h
Primary metabolizing enzyme (cytochrome P450 (CYP)): primarily metabolized by CYP3A4
Metabolic pathway (cytochrome P450 (CYP); in vitro and in vivo): oxidative metabolism via cytochrome P450 (CYP)
Inhibition of CYP2C19 (CYP2C19): potential time dependent inhibition
